Test results published in patent publication US9034863B2, “Compositions and methods for inhibiting entry of a hepatic virus” (The Board of Trustees of the University of Illinois, priority 2008, dated 2015).
Entries after “also recorded” stand apart in the source; their conditions may differ.

How the values were obtained:
HCV = experiment: Chronic HCV infection treated with IFN-β and ezetimibe, weekly RT-qPCR for 8 weeks; type: cell-based, Hepatitis C virus (HCV); settings: alone, during 8 weeks
Source text: Intracellular RNA was collected from triplicate wells weekly for 8 weeks post-treatment and HCV RNA was quantified by RT-qPCR.

[1] = system: HCV genotype 2a subgenomic replicon; experiment: HCV sg2a replicon RNA replication in Huh7 cells, RT-qPCR; type: cell-based, Hepatitis C virus (HCV); settings: 72 hours post-treatment
Source text: Huh7 cells, also known as Huh7/scr cells, are well-known in the art (Zhong, et al. (2005) Proc. Natl. Acad. Sci. USA 102, 9294-99; Gastaminza, et al. (2006) J. Virol. 80:11074-81; Zhong, et al. (2006) J. Virol. 80:11082-93; Sainz et al. (2009) PLoS ONE 4:e6561). […] The HCV sg2a replicon was established as previously described (Uprichard, et al. (2006) Virol. J. 3:89). Briefly the HCV genotype 2a subgenomic replicon RNA (psgJFH1; Kato, et al. (2003) Gastroenterology 125:1808-17) was XbaI linearized, in vitro transcribed using […] T7 (Ambion, Austin, Tex.) and transfected into cells using a modified electroporation protocol (Krieger, et al. (2001) J. Virol. 75(10):4614-24). All cells were cultured in complete Dulbecco's modified Eagle's medium (cDMEM) (Hyclone, Logan, Utah) supplemented with 10% fetal bovine serum (FBS) (Hyclone), 100 units/ml penicillin, […] streptomycin, and 2 mM L-glutamine (Gibco Invitrogen, Carlsbad, Calif.) and 500 μg/ml geneticin ((Invitrogen) for HCV replicon cells only).
Total cellular RNA was purified using an ABI PRISM™ 6100 Nucleic Acid PrepStation (Applied Biosystems), as per the manufacturer's instructions. […] HCV JFH-1 and human GAPDH RNA transcript levels were determined relative to a standard curve derived from serial dilutions of plasmid containing the JFH-1 HCV cDNA or the human GAPDH coding sequence, respectively. […]

Huh7 cells = experiment: Cytotoxicity assay (adenylate kinase release, TOXILIGHT); type: cell-based, human
Source text: The […] Plus Cell Proliferation assay kit (Lonza, Walkersville, Md.), which incorporates bioluminescent detection of cellular ATP as a measure of cell viability and proliferation, was used according to the manufacturer's instructions. Briefly, mock-treated and drug-treated cultures were lysed in Cell Lysis reagent for […]. One hundred μl of culture medium was transferred to white 96-well plates (BD Biosciences) containing ATP detection reagent and luminescence, expressed as relative light units (RLU), was measured (Fluostar OPTIMA). To assess drug-induced cellular toxicity, a bioluminescence-based assay (The TOXILIGHT BioAssay Kit, Lonza) that measures adenylate kinase (AK) released from damaged cells was used as per the manufacturer's instructions. […] One hundred μl of AK detection reagent was then added to each well, and luminescence (RLU) was measured (Fluostar OPTIMA).
To ensure that the inhibition observed was not due to ezetimibe-induced changes in cell proliferation or cytotoxicity, cellular ATP was measured as a read-out of Huh7 cell viability and proliferation and cellular toxicity by adenylate kinase release following treatment with increasing doses of ezetimibe. […] Furthermore, to test the specificity of the observed HCV inhibition, the effect of ezetimibe on entry of another flavivirus, Dengue virus (DNV), was assessed.

[2] = system: HCV genotype 1b subgenomic replicon; experiment: HCV sg1b replicon RNA replication in Huh7 cells, RT-qPCR; type: cell-based, Hepatitis C virus (HCV); settings: increasing doses, 72 hours
JFH-1 = experiment: Infectivity of intracellular virus from naringenin-treated cells; type: cell-based, Hepatitis C virus (HCV); settings: standard cell-free infection of naïve Huh7-1 cells
Description: To determine the nature of the intracellular JFH-1 virion particles which are able to spread from cell-to-cell, even in the absence of secretion, the buoyant density of the accumulated, intracellular particles from naringenin-treated cells were analyzed on iodixanol gradients. It was observed that the peak of RNA from these cells was shifted towards the heavier fractions consistent with the intracellular particles in naringenin-treated cells being less lipidated. Infectivity of the intracellular virus from naringenin-treated cells was reduced by more than 95% in a standard cell-free virus infection of naïve Huh7-1 cells.

Structure (SMILES)	steady-state intracellular HCV RNA levels (HCV)	sg2a HCV RNA levels [1]	cellular toxicity (adenylate kinase release) (Huh7 cells; increasing doses)	cytotoxicity (Huh7 cells; treatment of Huh7 cells for 12 hours, concentrations tested)	sg1b HCV RNA steady-state levels [2]	reduction of infectivity of intracellular virus (JFH-1)
O=C1[C@H](CC[C@H](O)c2ccc(F)cc2)[C@@H](c2ccc(O)cc2)N1c1ccc(F)cc1 [ezetimibe, 1-(4-fluorophenyl)-(3R)-[3-(4-fluorophenyl)-(3S)-hydroxypropyl]-(45)-(4-hydroxyphenyl)-2-azetidinone]	did not reduce HCV infection	did not inhibit HCV subgenomic RNA replication; also recorded: no significant reduction	did not inhibit cell proliferation or induce cellular toxicity	not cytotoxic	did not inhibit HCV subgenomic RNA replication; also recorded: no significant reduction	
O=C1C[C@@H](c2ccc(O)cc2)Oc2cc(O)cc(O)c21 [naringenin]						more than 95%
